The source of these data is publication PMC6761512, “Trypanosoma cruzi Phosphomannomutase and Guanosine Diphosphate-Mannose Pyrophosphorylase Ligandability Assessment” (Antimicrobial Agents and Chemotherapy, 2019).

One experiment concerns T. cruzi GDP-MP enzyme. The experiment can be described thus: Km determination with the GDP-MP assay. It counts as biochemical. How it is done: (§1) All enzyme and substrate solution dilutions were prepared in assay buffer comprising 25 mM Tris-HCl (pH 7.5), 150 mM NaCl, 4 mM MgCl2, 0.01% (vol/vol) Tween 20, and 1 mM dithiothreitol in ultrapure water. Biochemical assays were performed in a 50-μl final assay volume using clear 384-well assay microplates (Greiner, catalog no. 781101) at room temperature. Unless stated otherwise, all reagent concentrations are written as final biochemical assay concentrations, and DMSO or compounds were added to assay plates using Echo acoustic dispensers (Labcyte). Reagent addition for high-throughput screening assays was performed using an Xrd-384 liquid dispenser (FluidX, UK) and a BioFill Solo/Xrd-384 16 channel resin nozzle (2.00 to 200 μl) tubing cartridge (FluidX, catalog no. 34-1005-S). Biochemical reactions were terminated by addition of 50 μl of BIOMOL Green (Enzo Life Sciences, catalog no. BML-AK111-1000) reagent, after which absorbance was measured following a 30-min incubation at room temperature. Absorbance measurements were performed at 650 nm using a PHERAStar microplate reader (BMG Labtech, Germany), and the data are represented as relative absorbance units (RAU). Linear and nonlinear regression was performed using the SigmaPlot 12.5 software, unless stated otherwise.
To calculate the Michaelis constant (Km) for the M-1-P substrate, 20-min time course reactions using a fixed concentration of GDP-MP enzyme (3.13 nM), a saturating concentration of GTP substrate (600 μM) mixed with inorganic pyrophosphatase (1 U/ml; Merck, catalogue no. I5907-1MG), and various concentrations of M-1-P substrate (150, 75, 37.5, 18.8, 9.38, 4.69, and 2.34 μM) were performed. The Km for the GTP substrate was acquired in a similar manner using a saturating concentration of M-1-P (150 μM) and various concentrations of GTP substrate (300, 150, 75, 37.5, 18.8, 9.38, and 4.69 μM). In both cases, background control samples were also included that lacked the presence of GDP-MP enzyme. At the end of the time courses, the biochemical reactions were terminated, and absorbance measurements were taken. […]

For experiment [1], the target named is T1, T. cruzi PMM and GDP-MP enzymes (Trypanosoma cruzi, UniProt Q4CMK4). Put plainly: standard configuration PMM-GDP-MP biochemical assay. Particulars: for pIC50: library stock material, mean n=2; for pIC50 ± SD: repurchased material, n=3. The protocol: as §1
T1 sequence (Q4CMK4 entry or part of it): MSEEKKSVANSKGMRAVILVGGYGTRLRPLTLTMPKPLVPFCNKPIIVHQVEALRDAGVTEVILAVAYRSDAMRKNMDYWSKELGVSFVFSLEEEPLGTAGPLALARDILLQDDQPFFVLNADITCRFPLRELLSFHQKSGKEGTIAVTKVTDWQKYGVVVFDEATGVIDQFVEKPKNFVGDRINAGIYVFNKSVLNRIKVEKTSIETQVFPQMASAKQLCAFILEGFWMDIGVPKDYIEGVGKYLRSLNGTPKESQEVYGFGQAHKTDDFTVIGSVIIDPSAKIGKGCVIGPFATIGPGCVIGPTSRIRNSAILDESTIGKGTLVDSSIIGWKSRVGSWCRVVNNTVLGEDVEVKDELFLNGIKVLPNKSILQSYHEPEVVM
T1 sequence (Q4E4A3 entry or part of it, further chain): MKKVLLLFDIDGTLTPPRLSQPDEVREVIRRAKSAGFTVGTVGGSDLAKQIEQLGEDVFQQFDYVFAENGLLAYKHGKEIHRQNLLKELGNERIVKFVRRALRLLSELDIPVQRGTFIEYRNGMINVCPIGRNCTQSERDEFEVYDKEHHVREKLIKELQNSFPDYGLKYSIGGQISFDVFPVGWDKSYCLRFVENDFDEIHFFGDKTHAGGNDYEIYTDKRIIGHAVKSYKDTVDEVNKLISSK
Single-point diversity screening was performed using the standard configuration PMM-GDP-MP biochemical assay and microplates containing compounds in columns 1 to 22 from two diverse small-molecule compound sets covering traditional small-molecule chemical space (DDD, 9,257 compounds; molecular weights between 185.2 and 492.2) and more three-dimensional chemical space (GHCDL, 8,860 compounds; molecular weights between 190.24 and 449.3) at a final concentration of 10 μM (final DMSO concentration = 0.1% [vol/vol]) or a small polar set (16,845 primarily fragment-sized compounds with increased polarity; molecular weights between 88.1 and 476.0) at a final concentration of 300 μM (final DMSO concentration = 0.3% [vol/vol]). Columns 23 and 24 both contained DMSO (either 0.1 or 0.3% [vol/vol] at final assay concentration) and were utilized as “maximum effect” and “minimum effect” control populations, respectively. For screening purposes, 25 μl of a solution containing PMM and GDP-MP enzymes (6.25 and 3.13 nM, respectively) was added to columns 1 to 23, and 25 μl of buffer only was added to column 24. This was followed by the addition of 25 μl of a mixture containing inorganic pyrophosphatase (1 U/ml) and substrates/cofactors (150 μM GTP, 45 μM M-6-P, and 6 μM G-1,6,-BP). The assay plates were incubated at room temperature for 90 min. At the end of the incubation period, the biochemical reactions were terminated, and absorbance measurements were taken. Robust Z′ values were calculated for each assay microplate using the following equation: Robust Z’=1 –((3 ×(1.483 ×(RAU MAD Max)))+(3 ×(1.483 ×(RAU MAD Min))))/(median RAU Max− median RAU Min) where MAD is the median absolute deviation, Max are the maximum effect control samples, and Min are the minimum effect control samples.
RAU values were normalized to percent inhibition values relative to the maximum and minimum effect control populations, and compounds displaying percent inhibition values of ≥30% were selected as hits. Data were processed using IDBS ActivityBase 8.1.2.12 and Dotmatics Limited Vortex v2017.08.69598-59-s software.
Concentration-response assessment of hits using the PMM-GDP-MP assays was performed by adding 25 μl of a solution of PMM and GDP-MP enzymes (6.25 and 3.13 nM, respectively) to columns 1 to 11 and 13 to 23 of microplates containing various concentrations of compounds (10 final assay concentrations ranging from […] at 1 in 3 dilution increments in the presence of 1% [vol/vol] DMSO). Buffer only (25 μl) was added to columns 12 and 24. […]

Experiment [2] has as its target T2, T. cruzi GDP-MP (Trypanosoma cruzi, UniProt Q4CMK4). Put plainly: standard configuration GDP-MP biochemical assay. How it is done:
as §1
Concentration-response assessment of hits using the PMM-GDP-MP assays was performed by adding 25 μl of a solution of PMM and GDP-MP enzymes (6.25 and 3.13 nM, respectively) to columns 1 to 11 and 13 to 23 of microplates containing various concentrations of compounds (10 final assay concentrations ranging from […] at 1 in 3 dilution increments in the presence of 1% [vol/vol] DMSO). Buffer only (25 μl) was added to columns 12 and 24. Columns 11 and 23 were utilized as “maximum effect” control populations (1% [vol/vol] DMSO with enzyme), and columns 12 and 24 were “minimum effect” control populations (1% [vol/vol] DMSO in the absence of enzyme). This was followed by the addition of 25 μl of a mixture containing inorganic pyrophosphatase (1 U/ml) and substrates/cofactors (150 μM GTP, 45 μM M-6-P, and 6 μM G-1,6-BP for the standard configuration assay and 150 μM GTP, 225 μM M-6-P, and 30 μM G-1,6-BP for the high-substrate configuration assay) to the entire assay plate. The standard configuration assay plates were incubated at room temperature for 90 min, and the high-substrate configuration assay plates were incubated for 80 min. Standard and high-substrate configuration GDP-MP assay compound concentration-response assessments were performed as described above by incubating GDP-MP enzyme (3.13 or 0.78 nM) in the presence of GTP (30 or 300 μM), M-1-P (15 or 150 μM), and inorganic pyrophosphatase (1 U/ml) for 50 min at room temperature. Pyrophosphatase counterscreen concentration-response assessments were performed by preincubating compounds with inorganic pyrophosphatase (1 U/ml) for 90 min at room temperature, followed by the addition of inorganic pyrophosphate (10 μM) and a secondary 5-min incubation at room temperature. At the end of the incubation periods, the biochemical reactions were terminated and absorbance measurements were taken. RAU values were normalized to % inhibition values relative to the maximum and minimum effect control populations. pIC50 values, defined as –log[IC50(M)], were calculated by fitting concentration-response data for each independent replicate separately to a four-parameter logistic model, as shown below, using either the IDBS ActivityBase 8.1.2.12 or SigmaPlot 12.5 software. Where appropriate, the top curve plateau parameter was constrained to a value of 100.
The four-parameter logistic model was as follows, where Min is the minimum asymptote and Max is the maximum asymptote: y=Min+Max – Min/1+(10^−logIC50/x)^Hill slope

Experiment [3] concerns the target T1, T. cruzi PMM and GDP-MP enzymes. The experiment can be described thus: high-substrate configuration PMM-GDP-MP biochemical assay. Conditions: repurchased material, n=3. How it is done: as §1, with “otherwise. […]” for “otherwise.”
For experiment [4], the target named is T2, T. cruzi GDP-MP. The experiment can be described thus: high-substrate configuration GDP-MP biochemical assay. Conditions: for IC50: GDP-MP, high-substrate configuration, repurchased material, n=3; for mode of inhibition of GDP-MP: from comparison of standard and high-substrate (10-fold) configuration GDP-MP assays. How it is done:
as §1
Concentration-response assessment of hits using the PMM-GDP-MP assays was performed by adding 25 μl of a solution of PMM and GDP-MP enzymes (6.25 and 3.13 nM, respectively) to columns 1 to 11 and 13 to 23 of microplates containing various concentrations of compounds (10 final assay concentrations ranging from 990 to 1.92 μM at 1 in 3 dilution increments in the presence of 1% [vol/vol] DMSO). Buffer only (25 μl) was added to columns 12 and 24. Columns 11 and 23 were utilized as “maximum effect” control populations (1% [vol/vol] DMSO with enzyme), and columns 12 and 24 were “minimum effect” control populations (1% [vol/vol] DMSO in the absence of enzyme). This was followed by the addition of 25 μl of a mixture containing inorganic pyrophosphatase (1 U/ml) and substrates/cofactors (150 μM GTP, 45 μM M-6-P, and 6 μM G-1,6-BP for the standard configuration assay and 150 μM GTP, 225 μM M-6-P, and 30 μM G-1,6-BP for the high-substrate configuration assay) to the entire assay plate. […] At the end of the incubation periods, the biochemical reactions were terminated and absorbance measurements were taken. RAU values were normalized to % inhibition values relative to the maximum and minimum effect control populations. pIC50 values, defined as –log[IC50(M)], were calculated by fitting concentration-response data for each independent replicate separately to a four-parameter logistic model, as shown below, using either the IDBS ActivityBase 8.1.2.12 or SigmaPlot 12.5 software. […]

Setting [5] is: library stock material, n=1, read-out: pIC50 (converted).
[6] abbreviates: repurchased material, n=3, read-out: pIC50 ± SD (converted).

A word on the pIC50: it is the negative decadic logarithm of the IC50, by convention in mol/L. Lower therefore signals a large IC50.

T2 sequence (Q4CMK4 entry or part of it): as the sequence (Q4CMK4 entry or part of it) above

With `Nc1nc2c(ncn2[C@@H]2O[C@H](COP(=O)(O)OP(=O)(O)OP(=O)(O)O)[C@@H](O)[C@H]2O)c(=O)[nH]1` [GTP], in the experiment with T. cruzi GDP-MP enzyme (vs L. donovani GDP-MP), the “GTP Km of T. cruzi GDP-MP, fold higher than reported for L. donovani” value is on record as 2.4 fold. Also, the “GTP Km of T. cruzi GDP-MP, fold higher than reported for L. major” value in the experiment on T. cruzi GDP-MP enzyme (vs L. major GDP-MP) amounted to 27 fold. Also, in the experiment with T. cruzi GDP-MP enzyme (vs L. mexicana GDP-MP), the “GTP Km of T. cruzi GDP-MP, fold higher than reported for L. mexicana” value turned out to be 5.3 fold.

For `CC(C)C(C(=O)O)N1C(=O)C=CC1=O` (stereo not drawn) [compound 1], the pIC50 in experiment [1] is 4.9 (2). Besides, the IC50 on T. cruzi GDP-MP [2] (setting [5]) was 25.1 µM.

Take `c1ccn2c(CNCCCN3CCC3)cnc2c1` [compound 2]: the negative-log IC50 (pIC50) in experiment [1] was 3.6 (2). Moreover, the results for the “pIC50 ± SD” value in experiment [1] and in experiment [3] were 3.1 ± 0.2 (3) and 3.2 ± 0.2 (3), respectively. The IC50 was greater than 1000 µM at T. cruzi GDP-MP [2] (setting [5]), greater than 1000 µM at T. cruzi GDP-MP [2] (setting [6]) and 794 µM at T. cruzi GDP-MP [4]. At T. cruzi GDP-MP [4], the “mode of inhibition of GDP-MP” value is recorded as “uncompetitive inhibition”.

As to `CC(=O)OCc1cc(-c2csc(N)n2)ccc1O` [compound 3], the pIC50 in experiment [1] is 3.5 (2). The “pIC50 ± SD” value is on record as 3.9 ± 0.2 (3) in experiment [1] and 3.6 ± 0.1 (3) in experiment [3]. Further, the IC50 is 158 µM at T. cruzi GDP-MP [2] (setting [5]), 126 µM on T. cruzi GDP-MP [2] (setting [6]) and 316 µM against T. cruzi GDP-MP [4]. The “mode of inhibition of GDP-MP” value on T. cruzi GDP-MP [4] is given as “competitive inhibition”.

For `N[C@H]1CCN(CCCOc2ccc(C(=O)O)cc2)C1` [compound 4], in experiment [1], the pIC50 is recorded as 4.0 (2). Further, the IC50 on T. cruzi GDP-MP [2] (setting [5]) is 158 µM.
